Among the data in ChEMBL document CHEMBL1201862, “PubChem BioAssay data set” (2004) are IC50, EC50 and AC50 values, retold here.

Data set [1] has as its target T1, E3 ubiquitin-protein ligase XIAP (Homo sapiens, UniProt P98170). Description: Counter Screen using XIAP-Bir3 for Chemical Antagonists of Bir1/2 domains of IAP-family anti-apoptotic proteins. [Related pubchem assays (depositor defined):AID1018, AID1449, AID1514, AID1638, AID1749, AID1750, AID488957, AID488963].
In data set [2] the target is T1, E3 ubiquitin-protein ligase XIAP. Description: XIAP antagonists, biochemical, IAP family, fluorescence polarization (AID 1018). It counts as functional. Background: In fluorescence polarisation assays a small probe gives low polarisation when free and higher when bound to something large.
Data set [3] deals with Kallikrein-7 (Homo sapiens, UniProt P49862). Description: Fluorescence Intensity-based biochemical primary high throughput dose response assay to identify activators of kallikrein-7 (K7) zymogen.
The target in data set [4] is Cytochrome P450 3A4 (Homo sapiens, UniProt P08684).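 Also: CYP3A4 tested as one member of a cytochrome P450 panel screen.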
Data set [5] addresses Cytochrome P450 2C9 (Homo sapiens, UniProt P11712).
The target in data set [6] is T2, Histone-lysine N-methyltransferase NSD2 (Homo sapiens, UniProt O96028).
T2 sequence (O96028 whole entry): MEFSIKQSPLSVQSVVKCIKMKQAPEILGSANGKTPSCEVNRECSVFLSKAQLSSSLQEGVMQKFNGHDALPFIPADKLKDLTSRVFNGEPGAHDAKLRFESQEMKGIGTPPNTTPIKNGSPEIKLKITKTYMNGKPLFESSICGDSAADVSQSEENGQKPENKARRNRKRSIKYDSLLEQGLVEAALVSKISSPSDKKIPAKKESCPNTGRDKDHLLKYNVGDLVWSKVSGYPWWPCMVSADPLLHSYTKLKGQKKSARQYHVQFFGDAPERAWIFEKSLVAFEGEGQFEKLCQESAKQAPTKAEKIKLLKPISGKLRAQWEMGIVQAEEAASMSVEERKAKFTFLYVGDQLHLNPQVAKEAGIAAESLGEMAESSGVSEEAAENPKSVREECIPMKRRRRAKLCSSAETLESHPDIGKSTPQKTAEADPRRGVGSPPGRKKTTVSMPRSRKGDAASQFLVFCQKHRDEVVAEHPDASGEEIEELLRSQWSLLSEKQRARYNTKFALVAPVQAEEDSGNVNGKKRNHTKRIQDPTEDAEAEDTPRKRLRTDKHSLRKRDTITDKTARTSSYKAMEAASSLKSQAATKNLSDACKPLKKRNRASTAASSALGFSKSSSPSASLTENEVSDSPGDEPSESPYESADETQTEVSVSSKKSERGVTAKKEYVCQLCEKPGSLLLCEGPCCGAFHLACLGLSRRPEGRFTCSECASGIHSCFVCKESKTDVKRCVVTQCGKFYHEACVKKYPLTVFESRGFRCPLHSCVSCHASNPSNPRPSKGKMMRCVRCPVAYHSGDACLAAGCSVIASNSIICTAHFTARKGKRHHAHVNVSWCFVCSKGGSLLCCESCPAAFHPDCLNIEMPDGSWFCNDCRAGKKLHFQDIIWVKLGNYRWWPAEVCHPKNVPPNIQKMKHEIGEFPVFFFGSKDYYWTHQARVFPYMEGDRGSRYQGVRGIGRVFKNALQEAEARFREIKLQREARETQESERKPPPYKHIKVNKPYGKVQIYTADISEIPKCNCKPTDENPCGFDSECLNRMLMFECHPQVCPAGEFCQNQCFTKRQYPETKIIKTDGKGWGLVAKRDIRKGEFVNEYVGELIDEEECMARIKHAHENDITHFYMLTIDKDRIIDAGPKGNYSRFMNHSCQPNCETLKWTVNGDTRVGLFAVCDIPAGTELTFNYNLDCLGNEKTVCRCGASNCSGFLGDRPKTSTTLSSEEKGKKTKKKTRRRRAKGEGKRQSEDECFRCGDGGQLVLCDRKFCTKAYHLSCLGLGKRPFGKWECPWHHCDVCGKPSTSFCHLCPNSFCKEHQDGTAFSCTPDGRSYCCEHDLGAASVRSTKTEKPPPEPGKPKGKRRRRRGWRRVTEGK
The class given is biochemical.

Data set [7] deals with T3, 1-phosphatidylinositol 4,5-bisphosphate phosphodiesterase gamma-1 (Homo sapiens, UniProt P19174).
T3 sequence (P19174 whole entry): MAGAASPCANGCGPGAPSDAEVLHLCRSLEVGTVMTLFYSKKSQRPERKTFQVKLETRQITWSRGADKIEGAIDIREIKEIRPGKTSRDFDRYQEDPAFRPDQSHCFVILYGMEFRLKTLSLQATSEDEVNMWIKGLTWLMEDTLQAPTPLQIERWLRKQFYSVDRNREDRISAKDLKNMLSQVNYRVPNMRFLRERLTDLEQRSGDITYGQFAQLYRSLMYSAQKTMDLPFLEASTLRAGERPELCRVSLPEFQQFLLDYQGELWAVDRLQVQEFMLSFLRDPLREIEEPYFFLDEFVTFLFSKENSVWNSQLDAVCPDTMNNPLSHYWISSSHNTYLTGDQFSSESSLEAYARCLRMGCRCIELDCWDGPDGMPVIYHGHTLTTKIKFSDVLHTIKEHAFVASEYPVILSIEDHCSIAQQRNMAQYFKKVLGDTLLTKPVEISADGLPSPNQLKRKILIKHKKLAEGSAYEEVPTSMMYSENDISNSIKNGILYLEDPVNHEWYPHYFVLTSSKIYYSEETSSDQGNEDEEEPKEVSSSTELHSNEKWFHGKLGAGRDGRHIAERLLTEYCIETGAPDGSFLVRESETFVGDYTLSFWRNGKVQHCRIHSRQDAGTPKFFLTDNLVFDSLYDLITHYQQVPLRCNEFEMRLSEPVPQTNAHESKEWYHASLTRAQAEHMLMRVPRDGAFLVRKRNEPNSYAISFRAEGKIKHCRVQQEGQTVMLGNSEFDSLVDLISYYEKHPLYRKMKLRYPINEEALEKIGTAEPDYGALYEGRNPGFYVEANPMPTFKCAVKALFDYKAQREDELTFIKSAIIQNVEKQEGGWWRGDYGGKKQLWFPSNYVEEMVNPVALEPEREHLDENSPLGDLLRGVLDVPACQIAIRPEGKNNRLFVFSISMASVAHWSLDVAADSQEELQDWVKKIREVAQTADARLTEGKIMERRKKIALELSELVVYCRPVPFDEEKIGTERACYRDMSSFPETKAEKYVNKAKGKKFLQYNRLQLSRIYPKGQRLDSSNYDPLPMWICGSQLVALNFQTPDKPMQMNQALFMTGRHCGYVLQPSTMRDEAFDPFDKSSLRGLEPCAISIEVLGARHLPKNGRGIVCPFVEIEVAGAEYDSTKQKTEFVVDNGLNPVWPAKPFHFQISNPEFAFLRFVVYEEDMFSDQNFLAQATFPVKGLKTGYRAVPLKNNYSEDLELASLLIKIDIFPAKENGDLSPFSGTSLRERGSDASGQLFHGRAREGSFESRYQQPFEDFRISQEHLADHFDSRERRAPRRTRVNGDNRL
The data set can be described thus: Counterscreen for inhibitors of phospholipase C isozymes (PLC-B3): Fluorescence-based biochemical high throughput dose response assay to identify inhibitors of phospholipase C isozymes (PLC-gamma1).

Data set [8] addresses T4, 1-phosphatidylinositol 4,5-bisphosphate phosphodiesterase beta-3 (Homo sapiens, UniProt Q01970).
T4 sequence (Q01970 whole entry): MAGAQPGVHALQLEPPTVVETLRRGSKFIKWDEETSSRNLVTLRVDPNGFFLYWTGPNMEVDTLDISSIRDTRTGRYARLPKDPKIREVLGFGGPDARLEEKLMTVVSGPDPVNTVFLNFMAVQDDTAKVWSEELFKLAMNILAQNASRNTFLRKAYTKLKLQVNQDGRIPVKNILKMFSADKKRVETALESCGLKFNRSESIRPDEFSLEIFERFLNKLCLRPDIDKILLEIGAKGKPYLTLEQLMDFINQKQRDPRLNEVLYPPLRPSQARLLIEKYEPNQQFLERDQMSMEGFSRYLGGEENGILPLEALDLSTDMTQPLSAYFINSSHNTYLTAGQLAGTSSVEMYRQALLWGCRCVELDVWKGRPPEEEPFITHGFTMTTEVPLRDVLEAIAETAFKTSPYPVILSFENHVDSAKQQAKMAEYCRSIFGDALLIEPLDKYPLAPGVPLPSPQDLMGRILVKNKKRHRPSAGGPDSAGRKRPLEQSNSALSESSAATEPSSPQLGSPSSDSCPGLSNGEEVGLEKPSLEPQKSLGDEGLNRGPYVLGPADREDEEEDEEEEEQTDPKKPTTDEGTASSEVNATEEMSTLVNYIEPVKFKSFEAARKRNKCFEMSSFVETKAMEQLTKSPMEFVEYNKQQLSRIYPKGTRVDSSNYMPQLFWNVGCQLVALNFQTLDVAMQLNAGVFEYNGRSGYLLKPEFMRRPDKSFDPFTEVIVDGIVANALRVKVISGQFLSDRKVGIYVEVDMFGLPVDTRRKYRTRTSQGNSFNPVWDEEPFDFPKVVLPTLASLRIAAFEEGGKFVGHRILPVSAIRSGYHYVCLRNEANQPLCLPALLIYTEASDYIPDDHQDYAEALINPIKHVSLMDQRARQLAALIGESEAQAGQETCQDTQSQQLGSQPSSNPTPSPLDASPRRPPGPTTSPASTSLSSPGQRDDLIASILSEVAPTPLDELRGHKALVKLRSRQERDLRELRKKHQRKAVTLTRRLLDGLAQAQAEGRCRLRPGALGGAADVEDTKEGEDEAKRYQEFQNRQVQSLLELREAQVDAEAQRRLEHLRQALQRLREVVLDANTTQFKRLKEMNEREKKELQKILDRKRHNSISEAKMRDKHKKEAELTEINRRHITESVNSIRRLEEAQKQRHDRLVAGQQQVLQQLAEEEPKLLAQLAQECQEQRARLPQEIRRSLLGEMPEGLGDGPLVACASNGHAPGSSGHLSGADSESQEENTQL
The data set can be described thus: Fluorescence-based biochemical high throughput dose response assay to identify inhibitors of phospholipase C isozymes (PLC-B3).

A short description of data set [9]: enhancers of respiration in Yfh1-depleted yeast, dose response, Friedreich's ataxia, plus single-dose screen (AID 1465).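 Also: yeast depleted of Yfh1p frataxin homolog grown on glycerol needing respiration; WST-1 tetrazolium dye reduction as measure of cellular dehydrogenase metabolic activity.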 The class given is functional.
Data set [10] deals with T5, Mannose-6-phosphate isomerase (Homo sapiens, UniProt P34949).
T5 sequence (P34949 whole entry): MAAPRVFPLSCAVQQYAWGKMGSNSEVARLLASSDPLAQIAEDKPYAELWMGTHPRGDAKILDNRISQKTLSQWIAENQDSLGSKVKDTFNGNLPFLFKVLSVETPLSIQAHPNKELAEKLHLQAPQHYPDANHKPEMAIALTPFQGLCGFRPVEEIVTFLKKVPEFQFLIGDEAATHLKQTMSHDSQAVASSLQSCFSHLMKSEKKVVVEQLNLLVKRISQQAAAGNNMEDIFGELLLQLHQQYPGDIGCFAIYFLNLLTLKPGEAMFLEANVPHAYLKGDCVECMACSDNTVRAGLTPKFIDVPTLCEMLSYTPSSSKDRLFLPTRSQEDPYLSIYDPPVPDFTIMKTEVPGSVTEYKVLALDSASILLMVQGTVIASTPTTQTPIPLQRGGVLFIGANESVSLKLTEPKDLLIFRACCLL
Description: human PMI inhibitors, high substrate, primary screen, biochemical, fluorescence intensity, high mannose 6-phosphate (AID 1220).

Data set [11] in a line: P. falciparum 3D7-ScDHODH growth inhibitors, dose response, SYBR Green, dry powder samples (AID 1159570).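 Also: parasite growth measured after 72 hours of compound exposure.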 It counts as functional, cell-based.
The nature of data set [12]: HepG2 cell cytotoxicity, dose response, cytotoxicity control, plate reader, dry powder samples (AID 1159569).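 Also: inhibitor potency with signal falling toward the positive control level.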 It counts as functional, cell-based.
Data set [13] is described as follows: P. falciparum Dd2 growth inhibitors, dose response, SYBR Green, cherry-picked samples (AID 1159567). The class given is functional, cell-based.
A short description of data set [14]: P. falciparum Dd2 growth inhibitors, dose response, SYBR Green, dry powder samples (AID 1159566).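 Also: potency for growth inhibition with lower SYBR green DNA signal.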 The class given is functional, cell-based.
Data set [15] is described as follows: P. falciparum ATP4 D1247Y mutant growth inhibitors, dose response, NITD609-resistant line, SYBR Green, dry powder (AID 1159571).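 Also: parasites synchronized at ring stage by sorbitol before testing.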 It counts as functional, cell-based.

Active and inactive are the calls of the source.

Sequence of Kallikrein-7 (P49862 whole entry): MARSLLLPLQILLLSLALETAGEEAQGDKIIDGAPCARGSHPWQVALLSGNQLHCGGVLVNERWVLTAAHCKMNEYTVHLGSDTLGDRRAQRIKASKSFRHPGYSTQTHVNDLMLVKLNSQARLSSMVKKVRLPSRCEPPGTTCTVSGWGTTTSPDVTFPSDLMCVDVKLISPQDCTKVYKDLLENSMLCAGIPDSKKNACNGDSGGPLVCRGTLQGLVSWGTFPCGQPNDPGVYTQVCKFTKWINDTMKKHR
T1 sequence (P98170 whole entry): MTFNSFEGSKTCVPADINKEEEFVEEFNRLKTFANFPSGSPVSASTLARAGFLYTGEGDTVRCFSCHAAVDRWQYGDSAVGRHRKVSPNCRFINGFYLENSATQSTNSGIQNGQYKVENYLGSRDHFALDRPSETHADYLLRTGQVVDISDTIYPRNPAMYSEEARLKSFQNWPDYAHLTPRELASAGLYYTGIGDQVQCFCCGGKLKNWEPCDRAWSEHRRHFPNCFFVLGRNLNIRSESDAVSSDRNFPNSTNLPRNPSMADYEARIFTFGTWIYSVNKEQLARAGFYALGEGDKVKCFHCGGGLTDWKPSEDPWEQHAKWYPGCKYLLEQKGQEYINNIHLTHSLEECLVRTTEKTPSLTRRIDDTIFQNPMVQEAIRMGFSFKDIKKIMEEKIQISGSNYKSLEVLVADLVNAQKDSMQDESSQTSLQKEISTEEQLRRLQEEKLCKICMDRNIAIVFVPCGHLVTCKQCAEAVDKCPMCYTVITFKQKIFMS
Sequence of Cytochrome P450 3A4 (P08684 whole entry): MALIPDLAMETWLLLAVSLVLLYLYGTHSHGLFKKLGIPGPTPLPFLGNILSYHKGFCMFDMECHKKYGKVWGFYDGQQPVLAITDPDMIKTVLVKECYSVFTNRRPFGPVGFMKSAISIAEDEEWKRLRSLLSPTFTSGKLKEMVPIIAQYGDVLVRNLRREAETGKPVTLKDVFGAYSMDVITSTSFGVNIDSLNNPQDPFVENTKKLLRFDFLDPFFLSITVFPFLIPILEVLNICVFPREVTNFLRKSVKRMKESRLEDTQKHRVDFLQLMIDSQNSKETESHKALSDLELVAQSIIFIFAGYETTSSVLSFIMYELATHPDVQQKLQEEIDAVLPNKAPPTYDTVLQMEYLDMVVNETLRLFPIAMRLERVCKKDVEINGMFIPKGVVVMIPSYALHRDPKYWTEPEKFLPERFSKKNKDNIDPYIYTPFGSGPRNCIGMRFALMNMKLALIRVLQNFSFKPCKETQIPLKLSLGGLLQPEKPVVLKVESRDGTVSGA
Sequence of Cytochrome P450 2C9 (P11712 whole entry): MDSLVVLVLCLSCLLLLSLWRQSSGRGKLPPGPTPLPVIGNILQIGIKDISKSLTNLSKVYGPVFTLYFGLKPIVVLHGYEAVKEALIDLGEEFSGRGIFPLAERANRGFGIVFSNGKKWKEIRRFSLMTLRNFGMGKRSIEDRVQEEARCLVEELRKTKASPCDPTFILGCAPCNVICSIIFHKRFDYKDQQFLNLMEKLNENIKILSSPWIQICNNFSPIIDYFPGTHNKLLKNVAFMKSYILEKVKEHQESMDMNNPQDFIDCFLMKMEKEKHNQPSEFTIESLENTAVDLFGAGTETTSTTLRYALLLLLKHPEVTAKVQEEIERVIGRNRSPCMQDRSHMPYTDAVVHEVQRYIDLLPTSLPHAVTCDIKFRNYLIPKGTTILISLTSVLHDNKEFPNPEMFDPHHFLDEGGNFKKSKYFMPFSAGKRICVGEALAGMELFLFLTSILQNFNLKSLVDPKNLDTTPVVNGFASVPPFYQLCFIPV

In the case of `COc1ccc(S(=O)(=O)N2CCCC2)c(C)c1C`, the IC50 (as a rule, the concentration at which inhibition is half-maximal) in [1] was > 100 µM (inactive); in data set [2] it was > 100 µM (not active).

Consider `O=C(c1ccc(S(=O)(=O)NCC2CCCO2)cc1)N1CCN(c2cccc(Cl)c2)CC1` (stereo unspecified), for which the IC50 in data set [1] is > 100 µM (inactive); in data set [2], > 100 µM (not active).

Regarding `C=CCNc1sc(C(=O)c2ccc(C)cc2)c(N)c1C#N`, in [3], the EC50 (in general, the concentration needed to bring the measured effect to its halfway point) was 9.46 µM (active). Moreover, the AC50 – broadly, the midpoint of the concentration-response curve, whichever way the signal moves – in data set [4] was 31.6 µM (inconclusive); in [5], “inconclusive”.

In the case of `COc1cc(NC(=O)COc2ccccc2Cl)ccc1NC(=O)c1cccs1`, in data set [3], the EC50 was 8.31 µM (active).

Turning to `CCN(CC)CCNC(=O)/C(=C\c1cccn1C)NC(=O)c1cccs1`, the IC50 in data set [1] is > 100 µM (inactive); in [2], > 100 µM (not active). In addition, the AC50 in data set [6] is > 20 µM (inactive).

Regarding `Oc1c2nc3ccccc3c-2ncn1CCN1CCOCC1`, the IC50 in [7] and in [8] was > 122 µM (inactive) each time.

Turning to `O=C(C[C@H]1C[C@H](C(=O)N2CCCCC2)[C@@]2(CCc3ccccc3)c3[nH]c4cc(-c5ccco5)ccc4c3CCN2C1=O)NCCN1CCOCC1`, the EC50 in [3] was 8.82 µM (active).

In the case of `O=[N+]([O-])c1ccc(N2CCCC2)cc1N/N=C1\CN2CCC1CC2`, the EC50 in data set [9] was > 100 µM (active).

For `Cc1ccc(O)c(/N=C/c2ccc(C)s2)c1`, the IC50 in [10] is > 50 µM (not active).

Consider `O=C(Nc1ccc(F)cc1)N1CCCCN2[C@H](CO)[C@H](c3ccc(C#Cc4ccccc4)cc3)[C@@H]2C1`, for which the AC50 is 0.0201 µM (active) in [11]; 80.3 µM (active) in data set [12]; < 0.3 µM (active) in data set [13]; 0.0167 µM (active) in [14]; 0.0214 µM (active) in data set [15].

For the compound `COc1ccc2c3c(n(C)c2c1)[C@H](CO)N(C(=O)Nc1ccc(F)cc1)CC31CCN(C)CC1`, the AC50 is 4.11 µM (active) in data set [11]; 54.1 µM (active) in data set [12]; 2.67 µM (active) in [13]; 2.87 µM (active) in data set [14]; 4.61 µM (active) in [15].
